From patent publication US11160742B2, “Methods and compositions for improving hair color fastness and rejuvenating hair color” (L'Oreal, priority 2018, dated 2021)

Assay: Partition coefficient (Log Po/w) of direct dyes
Settings: octanol/water partition coefficient

Compound | Log Po/w value
CN(C)c1ccc(/N=N/c2n(C)cc[n+]2C)cc1 [BASIC RED 51, Basic Red 51] | around −1.97
CN(N=Cc1cc[n+](C)cc1)c1ccccc1 [BASIC YELLOW 87, Basic Yellow 87] | around −1.67
Cn1cc[n+](C)c1N=Nc1ccc(N)cc1.[Cl-] [BASIC ORANGE 31, Basic Orange 31] | around −2.31

Same assay, conditions: octanol/water partition coefficient, table of dyes

Compound | Log Po/w
CC1=NN(c2ccccc2)C(=O)C1N=Nc1cccc([N+](C)(C)C)c1.[Cl-] (centres unmarked) [BASIC YELLOW 57] | 0.06
CC1=CC(=C(c2cc(C)c(N)c(C)c2)c2c(Cl)cccc2Cl)C=C(C)C1=N.O=P(O)(O)O [HC BLUE NO. 15] | 3.47
Nc1c(N=Nc2ccc([N+](=O)[O-])cc2)c(S(=O)(=O)[O-])cc2cc(S(=O)(=O)[O-])c(N=Nc3ccccc3)c(O)c12.[Na+].[Na+] [ACID BLACK 1] | 1.2
HC RED NO. 7 | 0.13
O=S(=O)([O-])c1ccc(N=Nc2c(O)ccc3ccccc23)cc1.[Na+] [ACID ORANGE 7] | 1.4
O=[N+]([O-])c1cc(N(CCO)CCO)ccc1NCCO [HC BLUE NO. 2] | −0.32
O=C([O-])C1=NN(c2ccc(S(=O)(=O)[O-])cc2)C(=O)C1N=Nc1ccc(S(=O)(=O)[O-])cc1.[Na+].[Na+].[Na+] (centres unmarked) [ACID YELLOW 23] | −10.17
Cc1cc(N(CCO)CCO)ccc1N=Nc1ccc(N)cc1 [HC YELLOW NO. 7] | 2.59
Nc1ccc(N)c2c1C(=O)c1ccccc1C2=O [DISPERSE VIOLET 1] | 3
CN(C)c1ccc(/N=N/c2n(C)cc[n+]2C)cc1 [BASIC RED 51, Basic Red 51] | −1.97
O=[N+]([O-])c1cc(O)ccc1NCCO [3-NITRO-P-HYDROXYETHYLAMINOPHENOL] | 0.21
C[N+](C)(C)c1ccc2ccc(O)c(N=Nc3ccc(N)c([N+](=O)[O-])c3)c2c1.[Cl-] [BASIC BROWN 17] | −0.15
CCN(Cc1cccc(S(=O)(=O)[O-])c1)c1ccc(C(=C2C=CC(=[N+](CC)Cc3cccc(S(=O)(=O)[O-])c3)C=C2)c2ccccc2S(=O)(=O)[O-])cc1.[Na+].[Na+] [ACID BLUE 9] | −0.32
Nc1cc(S(=O)(=O)[O-])cc2cc(S(=O)(=O)[O-])c(N=Nc3ccccc3)c(O)c12.[Na+].[Na+] [ACID RED 33] | 0.5
Cc1ccc(Nc2ccc(O)c3c2C(=O)c2ccccc2C3=O)c(S(=O)(=O)[O-])c1.[Na+] [ACIDE VIOLET 43] | 3.1
C[N+](C)(C)c1cccc(N=C2C=C(N)c3c(O)c(Br)cc(N)c3C2=O)c1.[Cl-] [BASIC BLUE 99] | 1.88

Compound | Log Po/w
ACID YELLOW 3 | −1.05
O=[N+]([O-])c1cc(N(CCO)CCO)ccc1NCCCO [HC VIOLET NO 2] | 0.608
CN(N=Cc1cc[n+](C)cc1)c1ccccc1 [BASIC YELLOW 87, Basic Yellow 87] | −1.69
CNc1cc(OCC(O)CO)ccc1[N+](=O)[O-] (centres unmarked) [2-NITRO-5-GLYCERYL METHYLANILINE] | 0.89
O=S(=O)(O)c1cc(S(=O)(=O)O)c2c(/N=N\c3ccc(S(=O)(=O)O)c4ccccc34)c(O)ccc2c1 [ACID RED18] | 1.63
O=C([O-])c1c(Cl)c(Cl)c(Cl)c(Cl)c1-c1c2cc(Br)c(=O)c(Br)c-2oc2c(Br)c([O-])c(Br)cc12.[Na+].[Na+] [ACIDE RED 92] | 3
O=C1c2ccccc2C(=O)c2c(NCC(O)CO)ccc(NCC(O)CO)c21 (centres unmarked) [HC BLUE NO. 14] | 2.09
Nc1ccc(O)cc1[N+](=O)[O-] [4-AMINO-3-NITROPHENOL] | 1.19
NCCNc1ccc(OCCO)cc1[N+](=O)[O-] [HC ORANGE NO. 2] | 0.13
CCN(CC)c1ccc2c(-c3ccc(S(=O)(=O)[O-])cc3S(=O)(=O)[O-])c3ccc(=[N+](CC)CC)cc-3oc2c1.[Na+] [ACID RED 52] | 1.3
Nc1ccc(NCCO)c([N+](=O)[O-])c1 [HC RED NO. 3] | −0.42
Cc1cc(N)c([N+](=O)[O-])cc1NCCO [HC VIOLET NO 1] | 0.67
Cc1ccc(Nc2ccc(Nc3ccc(C)cc3S(=O)(=O)[O-])c3c2C(=O)c2ccccc2C3=O)c(S(=O)(=O)[O-])c1.[Na+].[Na+] [ACID GREEN 25] | 5.71
COc1ccc([N+](=O)[O-])c(NCCN)c1.Cl [HC YELLOW NO. 9] | 1.3
COS(=O)(=O)[O-].C[N+]1(CCCNc2ccc(O)c3c2C(=O)c2ccccc2C3=O)CCOCC1 [HYDROXYANTHRAQUINONEAMINO-PROPYL METHYL MORPHOLINIUM METHOSULFATE] | 0.89
Cn1cc[n+](C)c1N=Nc1ccc(N)cc1.[Cl-] [BASIC ORANGE 31, Basic Orange 31] | −2.31
